According to article PMC4980028, “Discovery of a Series of Acridinones as Mechanism-Based Tubulin Assembly Inhibitors with Anticancer Activity” (PLoS ONE, 2016):
Read-outs that look alike come from different tables or passages of the source.

Assays:
DU-145 = experiment: Cytotoxicity assay (MTS); assay type: cell-based, human; conditions: 72 h MTS assay
Description: (§1) MDA-MB-231, DU-145 and FGH cell lines were plated at a concentration of 4 x 10^3 cells/well in 96-well culture plates (TPP^TM). After 24 h, 10 concentrations (100–0.16 μM) of the test compounds were added in triplicate to the wells, and the plates were incubated for 72 h at 37°C in a 5% CO2 humidified atmosphere (if necessary). Then, 20 μL of the MTS reagent (CellTiter 96® AQueous One Solution Cell Proliferation Assay, Promega) was added to the wells, and the cells were incubated for 3 to 4 h at 37°C. Next, absorbance was measured at 490 nm using a spectrophotometer (SpectraMax Plus384, Molecular Devices). The percentage of unviable cells was determined in relation to the control wells, and at least two independent experiments were carried out for each test compound.

MDA-MB-231 = experiment: Cytotoxicity assay (MTS); assay type: cell-based, human; conditions: for IC50: 72 h MTS assay; for dead cells in MTS studies: similar concentrations as apoptosis analyses
Description: as §1

MDA-MB-231 cells [1] = experiment: Wound healing assay; assay type: cell-based, human; conditions: 10 μM, 22 h
Description: To qualitatively evaluate directional cell migration, MDA-MB-231 cells were seeded at a density of 1 x 10^5 cells/well in 24-well culture plates (TPP^TM) and allowed to reach a confluent monolayer. Then, the wells were scratched using a sterile 100 μL pipette tip. The medium was removed and fresh medium without FBS was added to clean the debris. Next, the cells were incubated for 22 h at 37°C with supplemented medium (10% FBS) and different concentrations of test compounds (10 μM, 1 μM and 0.250 μM). When measuring the wound closure, the wells were photographed under a 4X objective (Optiphase) at 0 and 22 h. The images were analyzed using Image J software, and two independent experiments were conducted in triplicate.

MDA-MB-231 cells [2] = experiment: Boyden chamber (transwell) migration assay; assay type: cell-based, human; conditions: MDA-MB-231, transwell, 6 h, read-out: IC50 Cell migration
Description: Transwells containing 0.3 cm^2 inserts with 8.0 μm pore polyethylene terephthalate membranes (Corning Falcon^TM) were used to quantify cell migration. MDA-MB-231 cells were added at a density of 4 x 10^4 cells/insert in serum-free media (300 μL) in the upper chambers. In the lower chambers, 700 μL of medium supplemented with 10% FBS was added. […] The systems were incubated at 37°C for 6 h. Next, the cells inside the insert were removed with a cotton swab and the cells under the membrane were fixed with methanol and stained with toluidine blue for 5 min. Pictures of the stained membrane were taken under a 10X objective (Optiphase), and the cells were quantified using NIS Elements software (NIKON). Two independent experiments were conducted in duplicate.

MDA-MB-231 cells [3] = experiment: Cell-cycle analysis by flow cytometry; assay type: cell-based, human; conditions: 48 h, 1 or 3 μM, synchronized culture
Description: MDA-MB-231 cells were added at a density of 5 x 10^5 cells in 25 cm^2 culture bottles (TPP^TM) with 5 mL of medium supplemented with 10% FBS. After 36 h, the media was removed, and 5 mL of fresh media without FBS was added. The bottles were then incubated for 48 h for cell-cycle synchronization. Then, the cells were treated with the test compounds (1 or 3 μM) for 48 h. Subsequently, the cells were harvested by trypsinization, and their chromatin was fixed and stained following the manufacturer’s instructions (cat. no. 340242, BD Biosciences^TM). Shortly thereafter, the cells were centrifuged at 300 rcf for 5 min and resuspended in 1 mL of buffer (sodium citrate, sucrose, and DMSO) three times. From this suspension, 1 x 10^6 cells were centrifuged at 400 rcf for 5 min, resuspended in 250 μL of solution A (trypsin in a spermine tetrahydrochloride detergent buffer) and incubated for 10 min at room temperature. Next, 200 μL of solution B (trypsin inhibitor and ribonuclease A in citrate-stabilizing buffer with spermine tetrahydrochloride) was added, and the suspension was incubated for 10 min at room temperature. Finally, 200 μL of solution C (propidium iodide (PI) and spermine tetrahydrochloride in citrate stabilizing buffer) was added, and the sample was incubated for 15 min in the refrigerator. The samples were then analyzed by flow cytometry using a BD Accuri C5 (BD Biosciences^TM) system (excitation at 488 nm and emission detected with a 585/40 nm filter).

FGH = experiment: Cytotoxicity assay (MTS); assay type: cell-based, human; conditions: for IC50: 72 h MTS assay, normal fibroblasts; for cell death in FGH cells: concentrations around the IC50 values in MDA-MB-231 cells
Description: (§2) Then, 20 μL of the MTS reagent (CellTiter 96® AQueous One Solution Cell Proliferation Assay, Promega) was added to the wells, and the cells were incubated for 3 to 4 h at 37°C. Next, absorbance was measured at 490 nm using a spectrophotometer (SpectraMax Plus384, Molecular Devices). The percentage of unviable cells was determined in relation to the control wells, and at least two independent experiments were carried out for each test compound.

tubulin [4] = biological target: T1, tubulin (Sus scrofa, UniProt P02550+P02554); experiment: Light-scattering-based tubulin polymerization assay; assay type: biochemical; conditions: read-out: IC50 Tubulin assembly
Description: To independently confirm the ability of the compounds to inhibit tubulin assembly, a second tubulin polymerization assay was carried out. We added 20 μL aliquots of the test compounds solubilized in 10% DMSO (in triplicate) to the wells of a 96-well culture plate (TPP^TM). Then, 180 μL of 3 mg/mL tubulin (>97% pure, HTS03, Cytoskeleton) in G-PEM buffer (80 mM PIPES, 1 mM EGTA, 2 mM GTP, 1 mM MgCl2 and glycerol 5%, pH 7,0) was added to the wells, and the absorbance at 340 nm was measured every 40 s for 1 h using a SpectraMax Plus384.

MDA-MB-231 cells [5] = experiment: Apoptosis analysis (FITC-Annexin V/PI flow cytometry); assay type: cell-based, human; conditions: for dead cells: 72 h after treatment; for apoptotic cells: after 24 h
Description: Apoptosis was measured by flow cytometry via double staining with FITC-Annexin V and PI (cat. no. 556570, BD Pharmigen^TM). Cells were prepared in the same way as described for the cell-cycle analysis, except that the cell-synchronization step was omitted in this case. After treatment with the test compounds for 24 or 72 h, the cells were harvested by trypsinization and centrifuged for 10 min at 150 rcf. The pellet was resuspended in annexin V binding buffer at a concentration of 10^6 cells/mL. Then, 100 μL of this suspension was collected and stained with 5 μL of PI and FITC-Annexin V for 15 min at room temperature in the dark. After this, 400 μL of annexin V binding buffer was added, and the samples were analyzed using a BD Accuri C5 cytometer with excitation at 488 nm and emission detected with 533/30 nm (FITC) and 670 LP nm (PI) filters.

Cytotoxicity assay (MTS) = assay type: cell-based, human; conditions: human, FGH cells (normal fibroblasts); 72 h MTS assay, normal fibroblasts
Description: as §2

tubulin [6] = biological target: T1, tubulin; experiment: Fluorescence-based tubulin polymerization assay; assay type: biochemical; conditions: read-out: IC50 Tubulin assembly
Description: Tubulin polymerization assay kit B[…] (Cytoskeleton) was used according to the manufacturer's instructions. […] The curves were normalized, and the percentage of inhibition was calculated by comparing the polymerization reaction at 25 min relative to vehicle control.

T1 sequence (P02550 whole entry): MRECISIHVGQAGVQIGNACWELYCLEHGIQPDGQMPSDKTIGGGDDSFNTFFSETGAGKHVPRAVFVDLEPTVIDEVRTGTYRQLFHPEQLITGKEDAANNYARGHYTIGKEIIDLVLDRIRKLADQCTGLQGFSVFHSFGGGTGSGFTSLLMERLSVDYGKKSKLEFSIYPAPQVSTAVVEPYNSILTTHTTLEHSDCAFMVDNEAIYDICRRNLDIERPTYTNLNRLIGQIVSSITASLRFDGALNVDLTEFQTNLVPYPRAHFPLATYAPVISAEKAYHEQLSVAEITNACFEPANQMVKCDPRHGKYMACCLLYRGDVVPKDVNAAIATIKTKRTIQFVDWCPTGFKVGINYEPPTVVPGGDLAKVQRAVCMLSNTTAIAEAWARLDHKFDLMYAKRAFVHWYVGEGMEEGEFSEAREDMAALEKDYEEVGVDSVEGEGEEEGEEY
T1 sequence (P02554 whole entry): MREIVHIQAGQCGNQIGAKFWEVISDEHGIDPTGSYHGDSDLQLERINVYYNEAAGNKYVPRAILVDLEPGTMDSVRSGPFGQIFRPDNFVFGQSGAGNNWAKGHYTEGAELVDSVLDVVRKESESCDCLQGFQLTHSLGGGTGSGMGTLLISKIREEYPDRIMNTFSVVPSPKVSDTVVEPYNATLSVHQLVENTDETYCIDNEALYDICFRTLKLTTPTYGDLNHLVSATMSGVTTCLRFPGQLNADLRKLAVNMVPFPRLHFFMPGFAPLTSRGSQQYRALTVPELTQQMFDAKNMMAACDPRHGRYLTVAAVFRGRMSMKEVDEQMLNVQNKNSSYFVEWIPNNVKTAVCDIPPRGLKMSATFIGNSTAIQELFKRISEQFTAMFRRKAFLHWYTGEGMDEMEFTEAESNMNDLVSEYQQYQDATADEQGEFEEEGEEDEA

| SMILES | IC50 (DU-145) | IC50 (MDA-MB-231) | dead cells in MTS studies (MDA-MB-231) | inhibition of wound closure (cell migration) (MDA-MB-231 cells [1]) | IC50 (MDA-MB-231 cells [2]) | cells arrested in G2 (MDA-MB-231 cells [3]) | IC50 (FGH) | cell death in FGH cells (FGH) | IC50 (tubulin [4]) | dead cells (MDA-MB-231 cells [5]) | apoptotic cells (MDA-MB-231 cells [5]) | IC50 at 72 h (Cytotoxicity assay (MTS)) | IC50 (tubulin [6]) | IC50 (DU-145; Homo sapiens, DU-145) | IC50 (MDA-MB-231; Homo sapiens, MDA-MB-231) | IC50 (MDA-MB-231 cells [2]; Homo sapiens) | SI (selectivity index) (FGH) |
| --- | --- | --- | --- | --- | --- | --- | --- | --- | --- | --- | --- | --- | --- | --- | --- | --- | --- |
| O=C1CCCC2=C1C(c1cccs1)c1ccc3ccccc3c1N2 (racemic) [Compound 9] | 1000 ± 300 nM | 1100 ± 200 nM | 71% | inhibit cell migration | 1345 ± 7 nM | 53.6% | > 100000 nM | 13% | 5000 ± 2000 nM | 75% | 54.6% |  |  |  |  |  |  |
| COc1cc2c(c(OC)c1OC)-c1ccc(OC)c(=O)cc1[C@@H](NC(C)=O)CC2 [Colchicine, colchicine, reference compound] | 25 ± 3 nM | 20 ± 10 nM |  |  |  | 42.9% |  |  |  | 72% | 65% | < 20 nM |  |  |  |  |  |
| O=C1CCCC2=C1C(c1ccc3c(c1)OCO3)c1ccc3ccccc3c1N2 (stereo not drawn) [Compound 6] | 3200 ± 700 nM | 3000 ± 1000 nM | 51% | inhibit cell migration | 1700 ± 700 nM | 53.6% | > 100000 nM | 3% |  | 55% | 69.4% |  | 13000 ± 2000 nM |  |  |  |  |
| O=C1CCCC2=C1[C@@H](c1cccc([N+](=O)[O-])c1)c1ccc3ccccc3c1N2 [Compound 7] |  |  | 69% | inhibit cell migration |  | 49.1% |  | 20% |  | 67% | 54.2% | > 100000 nM |  | 308 ± 50 nM | 190 ± 7 nM | 294 ± 5 nM | > 100 |
